Experiments:
[1] = target: human serum albumin (HSA) (Homo sapiens, UniProt P02768); experiment: Evaluation of binding to albumin (HSA solution, PBS control); details: left to stand in HSA solution (45 mg/mL)
Experimental: Thereafter, the reaction liquids were added to a spin column (Sephadex G-100; manufactured by Cytiva), and centrifuged at 1500×g at 4° C. for 2 minutes. After separation, the radioactivity for each of the column and the eluate was measured with a gamma counter.
When a compound to be evaluated binds to albumin to form a composite, the compound passes through the column because of the increased molecular size.
As in Examples described above, PBS and human albumin were used to evaluate binding to albumin.
Thereafter, the reaction liquid was added to a spin column (Sephadex G-50; manufactured by Cytiva), and centrifuged at 1500×g at 4° C. for 2 minutes. After separation, the radioactivity of the column and the eluate was measured with a gamma counter.

[2] = system: LNCaP tumor-transplanted mouse; experiment: Internal radioactivity distribution using LNCaP tumor-transplanted mouse; format: in vivo
Experimental: (§1) The animal test was performed in compliance with the guidelines of Kyoto University Animal Experiment Committee. Male CB17/IcrJcl-Prkdc^scid mice were purchased from CLEA Japan, Inc. The animals were kept under 12 h/12 h, day/night cycle conditions and fed ad libitum with food and water. LNCaP cells (1.0×10^7 cells/mouse) or PC-3 cells (1.0×10^7 cells/mouse) were suspended in a mixture of PBS and Matrigel manufactured by Corning Life Sciences (1:1, 150 μL) and the suspension was subcutaneously transplanted to the right shoulder of mice under isoflurane anesthesia. Thereafter, the mice were kept for 40 to 60 days.
LNCaP or PC-3 tumor-implanted mice were administered saline solutions (185 kBq, 100 μL) of [^111In]In-PSMA-DA1 or [^111In]In-PSMA-DB from the tail vein (n=3 each). Mice were euthanized 1, 4, 24, 48, 96, and 192 hours after administration. Thereafter, blood and each organ were recovered, and the mass and radioactivity of the organs were measured.
The percentage (% ID) of the radioactivity amount to the administered radioactivity amount (injected dose) is shown as the value (% ID/g) divided by the blood mass or the organ mass (g).
LNCaP tumor-implanted mice prepared by the same method as in Example 1-1 were administered a saline solution (241 kBq/100 μL) of [^111In]In-PtDA from the tail vein (n=3). Mice were euthanized 1, 24, and 48 hours after administration. Thereafter, blood and each organ were recovered, and the mass and radioactivity of the organs were measured.
LNCaP tumor-implanted mice prepared by the same method as in Example 1-1 were administered a saline solution (259 kBq/100 μL each) of each of the radiolabeled compounds in Examples 3-1 to 3-3 or Comparative Examples 2-1 to 2-2 from the tail vein (n=2 to 3). Mice were euthanized 1, 4, 24, 48, 96, and 192 hours after administration. Thereafter, blood and each organ were recovered, and the mass and radioactivity of the organs were measured.
as §1, with “LNCaP cells (4.3×10^6 cells/mouse) or” for “LNCaP cells (1.0×10^7 cells/mouse) or”, “PC-3 cells (3.3×10^6 cells/mouse) were” for “PC-3 cells (1.0×10^7 cells/mouse) were”, “shoulder of CB17/IcrJcl-Prkdc^scid mice under” for “shoulder of mice under”
Mice were euthanized 1, 4, 24, 48, 96, and 192 hours after administration. Thereafter, blood and each organ were recovered, and the mass and radioactivity of the organs were measured.
The results are shown in Table 12 (Mean value±standard deviation, n=3).

human serum albumin (HSA), sequence (P02768 25-609): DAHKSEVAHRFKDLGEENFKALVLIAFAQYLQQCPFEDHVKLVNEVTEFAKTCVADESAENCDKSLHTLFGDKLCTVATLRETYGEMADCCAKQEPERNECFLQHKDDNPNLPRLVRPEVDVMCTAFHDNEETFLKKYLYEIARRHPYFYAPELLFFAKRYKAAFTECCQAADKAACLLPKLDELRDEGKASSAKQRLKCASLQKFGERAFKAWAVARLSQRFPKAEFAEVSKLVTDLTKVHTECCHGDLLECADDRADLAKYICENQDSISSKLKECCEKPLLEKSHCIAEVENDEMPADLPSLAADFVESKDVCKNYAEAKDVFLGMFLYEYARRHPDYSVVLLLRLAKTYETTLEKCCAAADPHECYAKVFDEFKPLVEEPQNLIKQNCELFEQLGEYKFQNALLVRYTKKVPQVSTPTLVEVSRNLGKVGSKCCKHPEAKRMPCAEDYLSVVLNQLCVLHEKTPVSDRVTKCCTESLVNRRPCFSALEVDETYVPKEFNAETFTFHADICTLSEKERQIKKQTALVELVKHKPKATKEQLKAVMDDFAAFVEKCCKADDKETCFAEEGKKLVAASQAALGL

For `O=C([O-])CN(CCN(CCc1ccc(NC(=O)CCCCCNC(=O)CCC(=O)NCCCC[C@H](NC(=O)N[C@@H](CCC(=O)O)C(=O)O)C(=O)O)cc1)CCN(CC(=O)[O-])Cc1cccc(C(=O)[O-])n1)Cc1cccc(C(=O)[O-])n1.[111In+3]` [[^111In]In-Neunpa-1, reference compound], the “radioactivity in the eluate (in words)” value [1] was “low”, the Blood ([2]; 1 h after administration) was 2.30 ± 0.28 % ID/g and the Brain ([2]; 1 h after administration) was 0.05 ± 0.00 % ID/g. For the same molecule, the Heart ([2]; 1 h after administration) was 0.70 ± 0.03 % ID/g, the Intestine ([2]; 1 h after administration) was 0.47 ± 0.03 % ID/g and the Kidney ([2]; 1 h after administration) was 214 ± 53.0 % ID/g. For the same molecule, the “LNCaP Tumor” value ([2]; 1 h after administration) was 1.06 ± 0.21 % ID/g, the Liver ([2]; 1 h after administration) was 0.60 ± 0.07 % ID/g and the Lung ([2]; 1 h after administration) was 1.75 ± 0.18 % ID/g. For the same molecule, the Muscle ([2]; 1 h after administration) was 0.28 ± 0.06 % ID/g, the Pancreas ([2]; 1 h after administration) was 0.57 ± 0.14 % ID/g and the Spleen ([2]; 1 h after administration) was 6.83 ± 1.70 % ID/g. For the same molecule, the “Stomach (% ID)” value ([2]; 1 h after administration) was 0.17 ± 0.02 % ID, the Blood ([2]; 4 h after administration) was 1.24 ± 0.15 % ID/g and the Brain ([2]; 4 h after administration) was 0.04 ± 0.00 % ID/g. For the same molecule, the Heart ([2]; 4 h after administration) was 0.47 ± 0.08 % ID/g, the Intestine ([2]; 4 h after administration) was 0.66 ± 0.08 % ID/g and the Kidney ([2]; 4 h after administration) was 125 ± 89.2 % ID/g. The “LNCaP Tumor” value ([2]; 4 h after administration) was 0.69 ± 0.30 % ID/g, the Liver ([2]; 4 h after administration) was 0.69 ± 0.05 % ID/g and the Lung ([2]; 4 h after administration) was 1.03 ± 0.13 % ID/g. For the same molecule, the Muscle ([2]; 4 h after administration) was 0.11 ± 0.04 % ID/g, the Pancreas ([2]; 4 h after administration) was 0.50 ± 0.13 % ID/g and the Spleen ([2]; 4 h after administration) was 4.76 ± 1.17 % ID/g. For the same molecule, the “Stomach (% ID)” value ([2]; 4 h after administration) was 0.11 ± 0.03 % ID, the Blood ([2]; 24 h after administration) was 0.20 ± 0.02 % ID/g and the Brain ([2]; 24 h after administration) was 0.02 ± 0.01 % ID/g. It also gave a Heart ([2]; 24 h after administration) of 0.21 ± 0.01 % ID/g, an Intestine ([2]; 24 h after administration) of 0.32 ± 0.02 % ID/g and a Kidney ([2]; 24 h after administration) of 13.5 ± 0.43 % ID/g. For the same molecule, the “LNCaP Tumor” value ([2]; 24 h after administration) was 0.28 ± 0.02 % ID/g, the Liver ([2]; 24 h after administration) was 0.69 ± 0.05 % ID/g and the Lung ([2]; 24 h after administration) was 0.34 ± 0.05 % ID/g. For the same molecule, the Muscle ([2]; 24 h after administration) was 0.10 0.00 % ID/g, the Pancreas ([2]; 24 h after administration) was 0.28 ± 0.03 % ID/g and the Spleen ([2]; 24 h after administration) was 2.74 ± 0.07 % ID/g. For the same molecule, the “Stomach (% ID)” value ([2]; 24 h after administration) was 0.05 ± 0.00 % ID, the Blood ([2]; 48 h after administration) was 0.09 ± 0.03 % ID/g and the Brain ([2]; 48 h after administration) was 0.03 ± 0.01 % ID/g. The Heart ([2]; 48 h after administration) was 0.18 ± 0.05 % ID/g, the Intestine ([2]; 48 h after administration) was 0.32 ± 0.06 % ID/g and the Kidney ([2]; 48 h after administration) was 25.2 ± 17.1 % ID/g. The “LNCaP Tumor” value ([2]; 48 h after administration) was 0.30 ± 0.11 % ID/g, the Liver ([2]; 48 h after administration) was 0.80 ± 0.13 % ID/g and the Lung ([2]; 48 h after administration) was 0.32 ± 0.04 % ID/g. For the same molecule, the Muscle ([2]; 48 h after administration) was 0.10 ± 0.03 % ID/g, the Pancreas ([2]; 48 h after administration) was 0.38 ± 0.06 % ID/g and the Spleen ([2]; 48 h after administration) was 2.62 ± 0.79 % ID/g. The “Stomach (% ID)” value ([2]; 48 h after administration) was 0.09 ± 0.06 % ID, the Blood ([2]; 96 h after administration) was 0.06 ± 0.02 % ID/g and the Brain ([2]; 96 h after administration) was 0.03 ± 0.00 % ID/g. The Heart ([2]; 96 h after administration) was 0.28 ± 0.06 % ID/g, the Intestine ([2]; 96 h after administration) was 0.16 ± 0.07 % ID/g and the Kidney ([2]; 96 h after administration) was 15.1 ± 4.76 % ID/g. The “LNCaP Tumor” value ([2]; 96 h after administration) was 0.32 ± 0.09 % ID/g, the Liver ([2]; 96 h after administration) was 0.77 ± 0.07 % ID/g and the Lung ([2]; 96 h after administration) was 0.39 ± 0.06 % ID/g. The Muscle ([2]; 96 h after administration) was 0.09 ± 0.03 % ID/g, the Pancreas ([2]; 96 h after administration) was 0.32 ± 0.02 % ID/g and the Spleen ([2]; 96 h after administration) was 2.47 ± 0.60 % ID/g. The “Stomach (% ID)” value ([2]; 96 h after administration) was 0.07 ± 0.03 % ID, the Blood ([2]; 192 h after administration) was 0.01 % ID/g and the Brain ([2]; 192 h after administration) was 0.03 % ID/g. The Heart ([2]; 192 h after administration) was 0.22 % ID/g, the Intestine ([2]; 192 h after administration) was 0.06 % ID/g and the Kidney ([2]; 192 h after administration) was 2.79 % ID/g. For the same molecule, the “LNCaP Tumor” value ([2]; 192 h after administration) was 0.15 % ID/g, the Liver ([2]; 192 h after administration) was 0.63 % ID/g and the Lung ([2]; 192 h after administration) was 0.20 % ID/g. For the same molecule, the Muscle ([2]; 192 h after administration) was 0.07 % ID/g, the Pancreas ([2]; 192 h after administration) was 0.37 % ID/g and the Spleen ([2]; 192 h after administration) was 1.05 % ID/g. For the same molecule, the “Stomach (% ID)” value ([2]; 192 h after administration) was 0.02 % ID.

Reference: patent US20240174622A1, “COMPOUND AND RADIOACTIVE LABELING COMPOUND” (NIHON MEDI-PHYSICS CO., LTD., priority 2021, published 2024)
